Three compounds from patent US4801616A, “Diphenylmethanone compounds and anti-inflammatory use thereof” (Eli Lilly and Company, priority 1986, dated 1989) can be followed below.

For experiment [1], the target named is T1, fatty acid cyclooxygenase (Homo sapiens, UniProt P23219).
T1 construct: The solubilized fatty acid cyclooxygenase was applied to a 440 ml electrofocusing column; from tissue; host or cells: human platelets: microsomes solubilized with Triton X-100, purified by electrofocusing and G-200 Sephadex
T1 sequence (P23219 24-599): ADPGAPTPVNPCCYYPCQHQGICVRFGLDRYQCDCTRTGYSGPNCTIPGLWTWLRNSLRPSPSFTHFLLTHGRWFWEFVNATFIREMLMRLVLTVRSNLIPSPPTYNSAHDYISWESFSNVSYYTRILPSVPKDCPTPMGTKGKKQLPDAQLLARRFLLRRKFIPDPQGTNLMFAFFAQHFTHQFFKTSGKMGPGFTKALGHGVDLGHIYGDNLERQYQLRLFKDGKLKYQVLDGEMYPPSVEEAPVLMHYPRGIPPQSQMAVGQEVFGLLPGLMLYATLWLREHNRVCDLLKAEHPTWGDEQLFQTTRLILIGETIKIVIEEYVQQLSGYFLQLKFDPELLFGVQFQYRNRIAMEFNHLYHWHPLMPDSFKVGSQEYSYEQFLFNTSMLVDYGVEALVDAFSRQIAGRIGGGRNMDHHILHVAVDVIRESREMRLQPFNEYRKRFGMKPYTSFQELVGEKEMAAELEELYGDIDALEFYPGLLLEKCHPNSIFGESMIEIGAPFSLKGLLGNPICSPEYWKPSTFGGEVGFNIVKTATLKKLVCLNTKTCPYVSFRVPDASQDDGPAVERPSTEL
Nature of the experiment: Fatty Acid Cyclooxygenase (FCO) Assay, inhibition of PGE2 formation by purified human platelet enzyme. It counts as biochemical. To be noted: percent inhibition at 30 μg/ml. As to the method:
Fatty Acid Cyclooxygenase (FCO) Assay
Microsomes were prepared from 185 bags of human platelets (each bag containing the platelets from one pint of blood prepared using differential centrifugation procedures). The platelets from approximately 60 bags were prepared at one time. Platelet-rich plasma (500 g) was centrifuged at 10,000×g for 20 minutes, and the platelet pellet was suspended in 100 ml of 0.1M potassium phosphate buffer, pH 8.0, with a Teflon glass homogenizer and sonicated for 5.0 minutes with a Bronson Sonifier (Model 350) in a rosette flask cooled in ice water. Disrupted platelets were centrifuged 15 minutes at 10,000× g. The supernatant was centrifuged at 100,000× g for 90 minutes and the microsomal pellets were homogenized in 25 ml of 20% sucrose containing 1.0% Triton X-100 detergent. After 30 minutes at 4° C., the solubilized microsomes were centrifuged at 100,000× g for 60 minutes. The yellow supernatant was removed and stored at -70 ° C.
The solubilized fatty acid cyclooxygenase was applied to a 440 ml electrofocusing column (LKB-8012) containing 1% phisolytes (Brinkman Instruments, Westburgh, NY), pH 2-11, with the cathode at the top of the column. The enzyme was layered onto the column at the appropriate time so that its sucrose concentration was equal to that of the column gradient. This was accomplished by checking the gradient concentration periodically with a sucrose hand refractometer. Electrofocusing was carried out for 16 hours with an initial voltage of 400 V and a final voltage of 900-1,000 volts. Fractions were collected (20 ml) and assayed for PGE2 formation. Active peak fractions were pooled and concentrated by ultrafiltration (XM 100A) to a volume of 3-5 ml.
Active fractions from electrofocusing were applied to a G-200 Sephadex column (2 cm×46 cm) and eluted with 10 mM potassium phosphate buffer, pH 7.0, in 5 ml fractions. After assay, active fractions were poored and concentrated to 1.0 ml by ultrafiltration (XM 100A), and kept frozen at -70° C.
Enzyme activity was determined by assaying for PGE2 formation by preincubating the enzyme with 10 mmol/l imidazole phosphate buffer, pH 8.0, 2 mmol/l epinephrine, 2 mmol/l methemoglobin, and the test compound (30 μg/ml) in a total volume of 0.2 ml for one minute at 37° C. After preincubation, 5 mmol/l ^14 C-arachidonic acid were added and the mixture was incubated an additional 0.5 minutes at 37° C. The enzyme reaction was stopped by the addition of 2 μl of indomethacin (2 mg/ml) in alcohol.
The reaction mixture was spotted (50 μl) on a silica gel (LQ6D) plate and subjected to TLC. The solvent system consisted of chloroform-methanol-glacial acetic acid (90:5:5, v/v/v) and the relative mobilities were PGF2α =0.235, and PGE2 =0.47. The silica gel on the plate was scraped in 1 cm sections, suspended in 5 ml of the scintillation fluid [5.88 g of 2,5-diphenyloxazole and 118 mg of 1,4 -bis(5-phenyloxazol-2-yl)benzene] dissolved in 650 ml of toluene and 350 ml of Triton X-100) and the radioactivity was determined in an Isocap/300 liquid scintillation counter (Searle Analytic, Inc., Southfield, Mich.). Another 50 μl of the mixture was added to 10 ml of the Triton X-100 based scintillation fluid, and the radioactivity was determined so that the amount of radioactivity recovery from the TLC plate could be ascertained. PGE2 formation for each test compound was determined as a percent of control experiments wherein no test compound was added. Data is expressed in Table I either as the percent inhibition of formation of PGE2 at a test compound concentration of 30 μ g/ml, or as an IC50 for inhibition of PGE2 formation.

The next experiment concerns the target T2, 5-lipoxygenase (Cavia porcellus, UniProt A0A286X958).
T2 construct: incubating 0.2 ml of the supernatant obtained from the PMNL sonicate with the test compound; from tissue; host or cells: casein-elicited guinea pig peritoneal polymorphonuclear leukocytes (PMNL, more than 95 percent of the cells), sonicated, 30,000 x g supernatant
T2 sequence (A0A286X958 1-674): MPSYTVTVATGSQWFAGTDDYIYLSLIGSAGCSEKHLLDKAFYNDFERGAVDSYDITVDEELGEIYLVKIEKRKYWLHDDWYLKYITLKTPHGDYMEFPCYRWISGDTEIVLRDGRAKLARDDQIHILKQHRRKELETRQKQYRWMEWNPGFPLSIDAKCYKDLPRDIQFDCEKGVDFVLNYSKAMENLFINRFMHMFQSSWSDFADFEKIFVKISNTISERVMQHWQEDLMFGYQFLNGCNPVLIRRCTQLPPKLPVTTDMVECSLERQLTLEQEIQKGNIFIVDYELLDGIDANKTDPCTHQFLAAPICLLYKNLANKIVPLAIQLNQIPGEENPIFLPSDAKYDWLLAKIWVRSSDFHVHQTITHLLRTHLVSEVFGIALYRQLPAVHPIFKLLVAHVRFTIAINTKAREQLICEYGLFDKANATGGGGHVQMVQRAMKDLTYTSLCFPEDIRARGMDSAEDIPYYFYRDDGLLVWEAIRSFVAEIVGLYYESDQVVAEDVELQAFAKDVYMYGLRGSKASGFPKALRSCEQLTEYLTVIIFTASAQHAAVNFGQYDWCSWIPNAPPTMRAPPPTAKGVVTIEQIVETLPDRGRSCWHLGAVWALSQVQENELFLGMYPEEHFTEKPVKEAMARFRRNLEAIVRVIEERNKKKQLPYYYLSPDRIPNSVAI
Briefly: 5-Lipoxygenase (5-LPO) Assay, inhibition of 5-HETE formation in PMNL sonicate supernatant. Format: biochemical, guinea pig. As to conditions: guinea pig PMNL sonicate supernatant, 37° C., 5 μM 14C-arachidonic acid. The protocol:
5-Lipoxygenase (5-LPO) Assay
Ten milliliters of a 2% casein solution were injected intraperitoneally into guinea pigs weighing 250-300 gm. After 16-18 hours, the guinea pigs were killed by suffocation in a carbon dioxide chamber. The peritoneal cavity was infused with 70 ml of saline and 40-50 ml of the fluid were recovered from the cavity. After centrifugation, cell pellets were washed twice in Hank's balanced salt solution (HBSS) without calcium ion.
The cells were then suspended in 5 ml of sodium phosphate buffer, pH 7.1 containing 1 mM EDTA, and 0.1% gelatin. About 20-30×10^7 cells were obtained from one guinea pig.
The PMNL suspension was disrupted by five 1/2 second pulse sonications at the setting of 3 in a Branson Sonifier, Model 350, equipped with a microtip. The sonicates were combined and centrifuged at 30,000× g for 10 minutes. The supernatant was kept frozen at -70° C. until use.
Enzyme activity was determined by assaying for 5-HETE formation by first incubating 0.2 ml of the supernatant obtained from the PMNL sonicate with the test compound, 1 mM CaCl2, 2 mM ATP, and 1 mM GSH for 5 minutes at 37° C. The mixture is treated with 5 μM ^14 C-arachidonicacid and incubated at 37° C. an additional 10 minutes. The enzyme reaction was then stopped by the addition of 10 μl of 1M citric acid and 10μl of an alcohol solution containing 20 mg/ml each of indomethacin and butylated hydroxyanisole (BHA). The reaction mixture was spotted (50 μl on a silica gel plate (Baker TLC plate S1250-PA-19C) and subjected to TLC in a solvent system of ethyl acetate/2,2,4-trimethylpentane/glacial acetic acid/water (90:50:20:100).
The radioactivity of the arachidonic acid and its metabolites (5-HETE and LTB4) was visualized from a developed x-ray film which had been exposed to the TLC plate 1-2 days. The amount of 5-HETE formed was quantitated by scraping the silica gel area corresponding to the spot on the x-ray film, and the radioactivity determined in a Isocap/300 liquid scintillation counter (Searle Analytic, Inc.).
The percent inhibition of the formation of 5-HETE was determined for each concentration of test compound tested as compared to a control experiment wherein no test compound was added. The concentration and percent inhibition values were plotted on semi log paper and the concentration in which formation of 5-HETE is inhibited by 50% (IC50) was determined by interpolation.

SMILES strings stand for the structures.

In experiment [1], `CCCc1c(OCCCCc2nnn[nH]2)ccc(C(=O)c2ccccc2OC)c1OC` [Example 29, (2-Methoxyphenyl)(2-methoxy-3-propyl-4-[4-(1H-tetrazol-5-yl)butoxy]phenyl)methanone] gave an inhibition at 30 µg/mL below 5%. The same compound gave an IC50 on 5-lipoxygenase of 14.1 µM.

Take `CCCc1c(OCCCCC(=O)N(CC)CC)ccc(C(=O)c2ccccc2OC)c1OC` [Example 31, N,N-Diethyl-5-[3-methoxy-4-(2-methoxybenzoyl)-2-propylphenoxy]pentanamide]: in experiment [1], the inhibition at 30 µg/mL is below 5%. The compound further had a half-maximal inhibitory concentration (IC50) against 5-lipoxygenase of 17.6 µM.

Turning to `CCCc1c(OCCCCc2nnnn2C)ccc(C(=O)c2ccccc2OC)c1O` [Example 33, (2-Hydroxy-4-[4-(1-methyl-1H-tetrazol-5-yl)butoxy]3-propylphenyl)(2-methoxyphenyl)methanone], in experiment [1], the inhibition at 30 µg/mL worked out at 0%. For the same compound, the midpoint of inhibition on 5-lipoxygenase, the IC50, lay at 0.707 µM.
